Structures can show the parent of a compound that is named as a salt.
Each compound was assayed against NLRP3 (Homo sapiens, UniProt Q96P20) (assay: THP-1 cells pyroptosis assay (LPS + nigericin, resazurin readout)). Conditions: NLRP3 inhibitory activity, 1.0 μg/ml LPS, 5 μM nigericin.
Assay type: cell-based
Parameters: Seed THP-1 cells (25,000 cells/well) containing 1.0 μg/ml LPS in 40 μl of RPMI medium; host or cells: THP-1 cells
Protocol: THP-1 cells (ATCC #TIB-202) were grown in RPMI containing L-glutamine (Gibco #11835) supplemented with 1 mM sodium pyruvate (Sigma #S8636) and penicillin (100 units/ml)/streptomycin (0.1 mg/ml) (Sigma #P4333) in 10% Fetal Bovine Serum (FBS) (Sigma #F0804). The cells were routinely passaged and grown to confluency (˜10^6 cells/ml). On the day of the experiment, THP-1 cells were harvested and resuspended into RPMI medium (without FBS). The cells were then counted and viability (>90%) checked by Trypan blue (Sigma #T8154). Appropriate dilutions were made to give a concentration of 625,000 cells/ml. To this diluted cell solution was added LPS (Sigma #L4524) to give a […] Final Assay Concentration (FAC). 40 μl of the final preparation was aliquoted into each well of a 96-well plate. The plate thus prepared was used for compound screening.
The following method step-by-step assay was followed for compound screening. • 1. Seed THP-1 cells (25,000 cells/well) containing 1.0 μg/ml LPS in 40 μl of RPMI medium (without FBS) in 96-well, black walled, clear bottom cell culture plates coated with poly-D-lysine (VWR #734-0317) • 2. Add 5 μl compound (8 points half-log dilution, with 10 μM top dose) or vehicle (DMSO 0.1% FAC) to the appropriate wells • 3. Incubate for 3 hrs at 37° C. in 5% CO2 • 4. Add 5 μl nigericin (Sigma #N7143) (FAC 5 μM) to all wells • 5. Incubate for 1 hr at 37° C. and 5% CO2 • 6. At the end of the incubation period, spin plates at 300×g for 3 mins and remove supernatant • 7. Then add 50 μl of resazurin (Sigma #R7017) (FAC 100 μM resazurin in RPMI medium without FBS) and incubate plates for a further 1-2 hrs at 37° C. and 5% CO2 • 8. Plates were read in an Envision reader at Ex 560 nm and Em 590 nm • 9. IC50 data is fitted to a non-linear regression equation (log inhibitor vs response-variable slope 4-parameters)

Chain of NLRP3 (Q96P20 whole entry): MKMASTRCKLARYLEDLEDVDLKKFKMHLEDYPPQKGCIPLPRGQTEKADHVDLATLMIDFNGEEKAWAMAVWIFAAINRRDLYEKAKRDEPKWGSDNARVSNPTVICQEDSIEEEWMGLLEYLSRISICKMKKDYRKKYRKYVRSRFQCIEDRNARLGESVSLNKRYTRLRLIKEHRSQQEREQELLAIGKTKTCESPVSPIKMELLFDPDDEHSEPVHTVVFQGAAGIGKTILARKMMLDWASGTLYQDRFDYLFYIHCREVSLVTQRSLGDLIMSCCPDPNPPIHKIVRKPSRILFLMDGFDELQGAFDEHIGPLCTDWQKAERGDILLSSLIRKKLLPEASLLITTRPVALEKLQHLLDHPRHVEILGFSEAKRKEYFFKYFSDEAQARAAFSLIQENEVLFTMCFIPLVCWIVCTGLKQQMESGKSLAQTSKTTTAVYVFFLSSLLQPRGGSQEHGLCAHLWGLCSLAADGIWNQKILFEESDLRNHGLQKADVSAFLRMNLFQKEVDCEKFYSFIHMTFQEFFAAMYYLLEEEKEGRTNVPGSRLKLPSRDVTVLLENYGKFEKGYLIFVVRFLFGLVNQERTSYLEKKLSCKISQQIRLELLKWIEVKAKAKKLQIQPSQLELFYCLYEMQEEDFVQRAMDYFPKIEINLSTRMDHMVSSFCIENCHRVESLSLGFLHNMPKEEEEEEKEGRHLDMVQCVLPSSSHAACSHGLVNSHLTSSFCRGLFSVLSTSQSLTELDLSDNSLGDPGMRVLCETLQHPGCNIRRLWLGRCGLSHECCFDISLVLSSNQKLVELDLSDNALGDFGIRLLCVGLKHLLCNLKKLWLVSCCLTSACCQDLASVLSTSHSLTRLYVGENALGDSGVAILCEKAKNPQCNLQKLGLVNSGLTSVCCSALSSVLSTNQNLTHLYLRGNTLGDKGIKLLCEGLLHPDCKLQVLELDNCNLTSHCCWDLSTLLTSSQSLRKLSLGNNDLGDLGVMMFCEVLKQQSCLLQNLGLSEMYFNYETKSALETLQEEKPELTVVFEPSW

Structure (SMILES)	IC50
CNCCn1nc(S(=O)(=O)NC(=O)Nc2c3c(cc4c2CCC4)CCC3)cc1C(=O)O [Example 2, 3-(N-((1,2,3,5,6,7-Hexahydro-s-indacen-4-yl)carbamoyl)sulfamoyl)-1-(2-(methylamino)ethyl)-1H-pyrazole-5-carboxylic Acid]	2560 to 10000 nM
CC(C)n1nc(S(=O)(=O)[N-]C(=O)Nc2c3c(cc4c2CCC4)CCC3)cc1C(C)[N+](C)(C)C (stereo not shown) [Example 18, ((1,2,3,5,6,7-Hexahydro-s-indacen-4-yl)carbamoyl)((1-isopropyl-5-(1-(trimethylammonio)ethyl)-1H-pyrazol-3-yl)sulfonyl)amide]	640 to 2560 nM
CC(c1cc(S(=O)(=O)[N-]C(=O)Nc2c3c(cc4c2CCC4)CCC3)nn1C)[N+](C)(C)C (stereo not shown) [Example 19, ((1,2,3,5,6,7-Hexahydro-s-indacen-4-yl)carbamoyl)((1-methyl-5-(1-(trimethylammonio)ethyl)-1H-pyrazol-3-yl)sulfonyl)amide]	640 to 2560 nM
CN(Cc1cc(S(=O)(=O)NC(=O)Nc2c3c(cc4c2CCC4)CCC3)nn1C)C1CC1 [Example 85, 5-((Cyclopropyl(methyl)amino)methyl)-N-((1,2,3,5,6,7-hexahydro-s-indacen-4-yl)carbamoyl)-1-methyl-1H-pyrazole-3-sulfonamide, Sodium Salt]	160 to 640 nM
CN(Cc1cc(S(=O)(=O)NC(=O)Nc2c3c(cc4c2CCC4)CCC3)nn1C)CC(F)(F)F [Example 97, N-((1,2,3,5,6,7-Hexahydro-s-indacen-4-yl)carbamoyl)-1-methyl-5-((methyl(2,2,2-trifluoroethyl)amino)methyl)-1H-pyrazole-3-sulfonamide, Sodium Salt]	160 to 640 nM
Cn1nc(S(=O)(=O)NC(=O)Nc2c3c(cc4c2CCC4)CCC3)cc1CN1CCOCC1 [Example 121, N-((1,2,3,5,6,7-Hexahydro-s-indacen-4-yl)carbamoyl)-1-methyl-5-(morpholinomethyl)-1H-pyrazole-3-sulfonamide]	640 to 2560 nM
CC(C)c1cc(Cl)cc(C(C)C)c1NC(=O)NS(=O)(=O)c1cc(C(=O)N(C)CC#N)n(C)n1 [Example 130, 3-(N-((4-Chloro-2,6-diisopropylphenyl)carbamoyl)sulfamoyl)-N-(cyanomethyl)-N,1-dimethyl-1H-pyrazole-5-carboxamide]	640 to 2560 nM
CN(C)Cc1nc(S(=O)(=O)NC(=O)Nc2c3c(cc4c2CCC4)CCC3)cn1C [Example 167, 2-((Dimethylamino)methyl)-N-((1,2,3,5,6,7-hexahydro-s-indacen-4-yl)carbamoyl)-1-methyl-1H-imidazole-4-sulfonamide]	2560 to 10000 nM

Results, then the compound that gave them:

IC50	Structure (SMILES)
160 to 640 nM	CN1CC(N(C)Cc2cc(S(=O)(=O)NC(=O)Nc3c4c(cc5c3CCC5)CCC4)nn2C)C1 [Example 8, N-((1,2,3,5,6,7-Hexahydro-s-indacen-4-yl)carbamoyl)-1-methyl-5-((methyl(1-methylazetidin-3-yl)amino)methyl)-1H-pyrazole-3-sulfonamide, Sodium Salt]
2560 to 10000 nM	CC(C)c1cc(F)cc(C(C)C)c1NC(=O)NS(=O)(=O)c1cc(CN(C)C2CN(C)C2)n(C)n1 [Example 9, N-((4-Fluoro-2,6-diisopropylphenyl)carbamoyl)-1-methyl-5-((methyl(1-methylazetidin-3-yl)amino)methyl)-1H-pyrazole-3-sulfonamide, Sodium Salt]
640 to 2560 nM	CCn1nc(S(=O)(=O)NC(=O)Nc2c(Br)ccc3c2CCC3)cc1CN(C)C [Example 16, N-((5-Bromo-2,3-dihydro-1H-inden-4-yl)carbamoyl)-5-((dimethylamino)methyl)-1-ethyl-1H-pyrazole-3-sulfonamide]
640 to 2560 nM	CC(C)c1cc(F)cc(-c2ccnc(C(N)=O)c2)c1NC(=O)NS(=O)(=O)c1cc(CN(C)C)n(C)n1 [Example 28, 4-(2-(3-((5-((Dimethylamino)methyl)-1-methyl-1H-pyrazol-3-yl)sulfonyl)ureido)-5-fluoro-3-isopropylphenyl)picolinamide]
640 to 2560 nM	CC(C)c1cc(F)cc(-c2cncnc2)c1NC(=O)NS(=O)(=O)c1cc(CN(C)C)n(C(C)C)n1 [Example 42, 5-((Dimethylamino)methyl)-N-((4-fluoro-2-isopropyl-6-(pyrimidin-5-yl)phenyl)carbamoyl)-1-isopropyl-1H-pyrazole-3-sulfonamide]
640 to 2560 nM	CC(C)c1cc(F)cc(-c2cncnc2)c1NC(=O)NS(=O)(=O)c1cc(CN(C)C)n(C)n1 [Example 43, 5-((Dimethylamino)methyl)-N-((4-fluoro-2-isopropyl-6-(pyrimidin-5-yl)phenyl)carbamoyl)-1-methyl-1H-pyrazole-3-sulfonamide]
160 to 640 nM	CC(C)c1cc(F)cc(C(C)C)c1NC(=O)NS(=O)(=O)c1cc(CN(C)C)n(C(C)C)n1 [Example 61, 5-((Dimethylamino)methyl)-N-((4-fluoro-2,6-diisopropylphenyl)carbamoyl)-1-isopropyl-1H-pyrazole-3-sulfonamide]
640 to 2560 nM	CC(C)c1cc(F)cc(C(C)C)c1NC(=O)NS(=O)(=O)c1cc(CN(C)C2CC2)n(C)n1 [Example 87, 5-((Cyclopropyl(methyl)amino)methyl)-N-((4-fluoro-2,6-diisopropylphenyl)carbamoyl)-1-methyl-1H-pyrazole-3-sulfonamide, sodium Salt]
640 to 2560 nM	COCCN(C)Cc1cc(S(=O)(=O)NC(=O)Nc2c(C(C)C)cc(F)cc2C(C)C)nn1C [Example 118, N-((4-Fluoro-2,6-diisopropylphenyl)carbamoyl)-5-(((2-methoxyethyl)(methyl)amino)methyl)-1-methyl-1H-pyrazole-3-sulfonamide, Sodium Salt]
640 to 2560 nM	CC(C)c1cc(Cl)cc(C(C)C)c1NC(=O)NS(=O)(=O)c1cc(CN2CCOCC2)n(C)n1 [Example 120, N-((4-Chloro-2,6-diisopropylphenyl)carbamoyl)-1-methyl-5-(morpholinomethyl)-1H-pyrazole-3-sulfonamide, Sodium Salt]
640 to 2560 nM	CCn1nc(S(=O)(=O)NC(=O)Nc2c(-c3cccc(OC)c3)ccc3c2CCC3)cc1CN(C)C [Example 182]
